Results on 21 compounds are retold here after ChEMBL document CHEMBL1152215, “6-[2-(4-Aryl-1-piperazinyl)ethyl]-2H-1,4-benzoxazin-3(4H)-ones: dual-acting 5-HT1 receptor antagonists and serotonin reuptake inhibitors” (Bioorg Med Chem Lett, 2008).

In data set [1] the target is T1, 5-hydroxytryptamine receptor 1B (Homo sapiens, UniProt P28222). The data set can be described thus: Displacement of [3H]5HT from human 5HT1B receptor expressed in CHO cells. It is filed as cell-based.
Data set [2] addresses T2, 5-hydroxytryptamine receptor 1A (Homo sapiens, UniProt P08908).
T2 sequence (P08908 whole entry): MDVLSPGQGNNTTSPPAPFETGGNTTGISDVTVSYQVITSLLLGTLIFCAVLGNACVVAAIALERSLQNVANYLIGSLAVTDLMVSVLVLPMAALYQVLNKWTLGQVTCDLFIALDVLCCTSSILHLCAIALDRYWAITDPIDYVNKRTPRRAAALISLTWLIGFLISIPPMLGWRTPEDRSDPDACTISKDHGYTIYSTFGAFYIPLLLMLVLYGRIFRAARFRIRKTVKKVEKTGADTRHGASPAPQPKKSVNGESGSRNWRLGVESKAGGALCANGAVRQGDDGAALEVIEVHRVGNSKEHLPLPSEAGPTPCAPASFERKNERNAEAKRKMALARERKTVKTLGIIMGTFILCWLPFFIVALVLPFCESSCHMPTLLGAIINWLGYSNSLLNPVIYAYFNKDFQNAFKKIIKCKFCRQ
The data set can be described thus: Displacement of [3H]WAY-100635 from human 5HT1A receptor expressed in CHO cells. The class given is cell-based.

Data set [3] deals with Sodium-dependent serotonin transporter (Homo sapiens, UniProt P31645). The data set can be described thus: Displacement of [3H]citalopram from human SerT expressed pig LLCPK cells. It is filed as cell-based.
Chain of Sodium-dependent serotonin transporter (P31645 whole entry): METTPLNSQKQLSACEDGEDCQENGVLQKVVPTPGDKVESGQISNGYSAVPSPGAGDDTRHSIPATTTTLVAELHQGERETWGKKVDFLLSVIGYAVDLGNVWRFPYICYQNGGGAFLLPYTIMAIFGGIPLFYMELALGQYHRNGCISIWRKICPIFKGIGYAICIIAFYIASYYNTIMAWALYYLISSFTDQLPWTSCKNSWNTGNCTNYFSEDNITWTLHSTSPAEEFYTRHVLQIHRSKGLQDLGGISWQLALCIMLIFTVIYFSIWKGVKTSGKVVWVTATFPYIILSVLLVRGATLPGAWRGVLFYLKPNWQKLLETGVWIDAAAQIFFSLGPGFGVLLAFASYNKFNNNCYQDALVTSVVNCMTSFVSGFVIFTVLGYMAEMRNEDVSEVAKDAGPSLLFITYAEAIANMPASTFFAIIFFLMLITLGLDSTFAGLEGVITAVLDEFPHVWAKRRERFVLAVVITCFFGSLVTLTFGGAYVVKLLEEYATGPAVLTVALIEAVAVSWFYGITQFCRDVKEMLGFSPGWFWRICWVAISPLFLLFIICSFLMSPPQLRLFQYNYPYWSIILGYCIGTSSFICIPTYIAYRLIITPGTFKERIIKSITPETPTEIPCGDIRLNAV
Data set [4] concerns the target T1, 5-hydroxytryptamine receptor 1B. In words: Intrinsic activity at human 5HT1B receptor expressed in CHO cells by [S35]GTPgammaS binding assay relative to serotonin. The class given is functional, cell-based.
The target of data set [5] is T3, 5-hydroxytryptamine receptor 1A (Homo sapiens) (UniProt P08908).
T3 sequence (whole entry): T2 sequence (P08908 whole entry)
The data set can be described thus: Intrinsic activity at human 5HT1A receptor expressed in CHO cells by [S35]GTPgammaS binding assay relative to serotonin. The class given is functional, cell-based.

Data set [6] has as its target T4, 5-hydroxytryptamine receptor 1D (Homo sapiens, UniProt P28221). The data set can be described thus: Intrinsic activity at human 5HT1D receptor expressed in CHO cells by [S35]GTPgammaS binding assay relative to serotonin. It is filed as functional, cell-based.
For data set [7], the target named is T4, 5-hydroxytryptamine receptor 1D. In words: Displacement of [3H]5HT from human 5HT1D receptor expressed in CHO cells. It is filed as cell-based.
The nature of data set [8]: Half life in rat. It is filed as ADME, organism-based. As to conditions: in vivo.
Data set [9] is described as follows: Blood Clearance in rat at 0.5 mg/kg, iv and 1 mg/kg, po. As to conditions: whole blood. The class given is ADME, organism-based.
Data set [10] in a line: Oral bioavailability in rat at 1 mg/kg. It is filed as ADME, organism-based. As to conditions: in vivo.
A short description of data set [11]: Volume of distribution in rat. Conditions: in vivo, read-out: Vdss. The class given is ADME, organism-based.
A short description of data set [12]: Ratio of drug level in brain to blood in rat. It is filed as ADME, organism-based. Conditions: brain / whole blood.
Data set [13] concerns Liver microsomes. In words: Metabolic stability in rat liver microsomes assessed as intrinsic clearance. It is filed as ADME, Microsome.
Data set [14] concerns Liver microsomes. In words: Metabolic stability in human liver microsomes assessed as intrinsic clearance. The class given is ADME, Microsome.

T1 sequence (P28222 whole entry): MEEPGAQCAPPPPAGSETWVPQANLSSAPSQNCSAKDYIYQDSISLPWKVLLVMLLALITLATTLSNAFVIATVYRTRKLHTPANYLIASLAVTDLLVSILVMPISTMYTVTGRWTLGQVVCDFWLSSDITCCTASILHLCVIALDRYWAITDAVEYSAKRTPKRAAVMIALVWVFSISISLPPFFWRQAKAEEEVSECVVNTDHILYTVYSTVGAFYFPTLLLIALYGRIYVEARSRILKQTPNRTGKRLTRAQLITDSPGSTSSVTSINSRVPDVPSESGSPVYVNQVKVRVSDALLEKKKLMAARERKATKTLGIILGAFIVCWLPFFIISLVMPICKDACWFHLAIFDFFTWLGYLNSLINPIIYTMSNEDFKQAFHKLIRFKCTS
T4 sequence (P28221 whole entry): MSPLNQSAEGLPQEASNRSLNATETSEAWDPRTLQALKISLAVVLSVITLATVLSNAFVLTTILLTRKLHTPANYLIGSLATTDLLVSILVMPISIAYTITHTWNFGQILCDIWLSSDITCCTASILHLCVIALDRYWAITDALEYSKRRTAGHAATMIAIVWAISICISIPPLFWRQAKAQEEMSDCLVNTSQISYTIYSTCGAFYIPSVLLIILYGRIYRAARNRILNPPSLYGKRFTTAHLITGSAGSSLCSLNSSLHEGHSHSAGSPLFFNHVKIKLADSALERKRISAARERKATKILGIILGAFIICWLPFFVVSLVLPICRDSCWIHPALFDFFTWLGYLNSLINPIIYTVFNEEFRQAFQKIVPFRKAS

As for `CCN1C(=O)COc2ccc(CCN3CCN(c4cccc5nc(C)ccc45)CC3)cc21`, the Ki was 0.794 nM in data set [1], 0.501 nM in data set [2], 79.4 nM in data set [3] and 0.398 nM in [7]. The Intrinsic activity in data set [4], in [5] and in data set [6] was 0 throughout.
As to `O=C1COc2ccc(CCN3CCN(c4nccc5ccccc45)CC3)cc2N1`, the Ki in data set [1] was 0.794 nM; in data set [2], 100 nM; in [3], 0.794 nM; in data set [7], 0.251 nM. Also, the Intrinsic activity in data set [4] came out at 0.5; in data set [5], 1; in [6] it was 0.4.
As for `Cc1ccc2c(N3CCN(CCc4ccc5c(c4)NC(=O)CO5)[C@@H](C)C3)cccc2n1`, the inhibition constant Ki in data set [1] was 1.26 nM; in data set [2], 3.16 nM; in data set [3], 0.398 nM; in data set [7], 1.58 nM. Moreover, the Intrinsic activity in [4], in [5] and in data set [6] was 0 throughout.
In [8], `Cc1ncc2c(N3CCN(CCc4ccc5c(c4)NC(=O)CO5)CC3)cccc2n1` showed a half-life of 2.8 h. The compound also gave a clearance in data set [9] of 4 mL/min/kg. Moreover, the bioavailability in [10] amounted to 67%. In addition, the inhibitory constant (Ki) in data set [1] is 0.631 nM; in data set [2], 0.398 nM; in data set [3], 2 nM; in [7], 0.316 nM. Besides, the Vd in [11] was 1.1 L/kg. Besides, the values for the Intrinsic activity in data set [4], in data set [5] and in data set [6] were 0.2, 0.6 and 0, respectively. The partition ratio (Kp) in data set [12] is 0.3.
As for `O=C1COc2ccc(CCN3CCN(c4cccc5nc(-c6ccccc6)ccc45)CC3)cc2N1`, the Ki was 0.316 nM in data set [1], 0.631 nM in data set [2], 0.158 nM in data set [3] and 12.6 nM in data set [7]. Besides, the Intrinsic activity in [4] is 0.2; in data set [5], 0.4; in [6], 0.
Take `Cc1ccc2c(N3CCN(CCc4cc(F)c5c(c4)NC(=O)CO5)CC3)cccc2n1`: the inhibition constant (Ki) was 1 nM in data set [1], 1.26 nM in data set [2], 1.26 nM in data set [3] and 0.2 nM in [7]. The Intrinsic activity was determined as 0.3 in data set [4], 0 in data set [5] and 0 in [6].
`Cc1ccc2c(N3CCN(CCc4cc5c(cc4F)OCC(=O)N5)CC3)cccc2n1`: the inhibition constant Ki was 1.58 nM in [1], 0.251 nM in data set [2], 0.794 nM in data set [3] and 0.251 nM in data set [7]. Also, the results for the Intrinsic activity in data set [4], in data set [5] and in [6] were 0.1, 0.2 and 0, respectively.
As to `CC1(C)Cc2cccc(N3CCN(CCc4ccc5c(c4)NC(=O)CO5)CC3)c2O1`, the Ki in data set [1] is 0.631 nM; in [2], 0.501 nM; in data set [3], 2.51 nM; in [7], 0.158 nM. The Intrinsic activity in data set [4] is 0.6; in data set [5], 1.2; in [6] it was 0.5.
As for `Cc1ccc2c(N3CCN(CCc4ccc5c(c4)NC(=O)CO5)CC3)ccc(Cl)c2n1`, the Ki in data set [1] was 0.501 nM; in data set [2], 3.98 nM; in [3] it was 1.58 nM; in [7], 0.2 nM. For the same compound, the Intrinsic activity in [4] was determined as 0.3; in [5], 0.7; in data set [6] it was 0.
For the compound `Cc1ccc2c(N3CCN(CCc4ccc5c(c4F)NC(=O)CO5)CC3)cccc2n1`, the Ki was 0.398 nM in data set [1], 0.251 nM in data set [2], 5.01 nM in data set [3] and 0.398 nM in [7]. The figures for the Intrinsic activity in [4], in data set [5] and in [6] were 0.2, 0.3 and 0, respectively.
Turning to `Cc1cc(N2CCN(CCc3ccc4c(c3)NC(=O)CO4)CC2)c2ccc(C)nc2c1`, the Ki in data set [1] was 0.631 nM; in data set [2], 0.126 nM; in data set [3], 15.8 nM; in data set [7] it was 0.398 nM. In addition, the Intrinsic activity amounted to 0.3 in [4], 1.2 in [5] and 0.3 in data set [6].
On to `Cc1ccc2c(N3CCN(CCc4ccc5c(c4)NC(=O)CO5)CC3)cc(F)cc2n1`, for which the inhibition constant (Ki) in data set [1] is 2.51 nM; in data set [2], 2.51 nM; in data set [3], 0.794 nM; in [7], 0.2 nM. Also, the Intrinsic activity in data set [4], in [5] and in data set [6] was 0 throughout.
With `Cc1ccc2c(N3CCN(CCc4ccc5c(c4)NC(=O)CO5)CC3)ccc(F)c2n1`, the inhibition constant Ki was 126 nM in data set [1], 0.251 nM in [2], 3.98 nM in [3] and 0.316 nM in data set [7]. For the same compound, the Intrinsic activity in data set [4] came out at 0; in data set [5], 0.2; in data set [6], 0.
Regarding `O=C1COc2ccc(CCN3CCN(c4cccc5cccnc45)CC3)cc2N1`, the inhibition constant Ki in [1] is 31.6 nM; in data set [2], 1.58 nM; in data set [3], 10 nM; in [7], 0.251 nM. In addition, the Intrinsic activity came out at 0.7 in data set [4], 0.8 in [5] and 0.7 in data set [6].
Turning to `Cc1ccc2c(N3CCN(CCc4ccc5c(c4)NC(=O)CO5)[C@H](C)C3)cccc2n1`, the Ki in [1] is 7.94 nM; in [2], 1.58 nM; in [3], 0.794 nM; in data set [7] it was 0.501 nM. Moreover, the Intrinsic activity in data set [4], in [5] and in data set [6] was 0 in each case.
As for `Cc1ccc2c(N3CCN(CCc4ccc5c(c4)NC(=O)CO5)CC3)cccc2n1`, the half-life in data set [8] was 5.1 h. This compound also registered a clearance in [9] of 5 mL/min/kg. The compound further gave a bioavailability in [10] of 68%. The results for the CL in data set [13] and in [14] were 1.3 mL/min/g and < 0.5 mL/min/g, respectively. Moreover, the Vd in data set [11] worked out at 2 L/kg. The figures for the Intrinsic activity in [4] and in data set [5] were 0.1 and 0.2, respectively.
In the case of `Cc1ccc2c(N3CCN(CCc4ccc5c(c4)NC(=O)CO5)CC3C)cccc2n1` (centres undefined), the inhibitory constant (Ki) in data set [1] is 2 nM; in data set [2] it was 0.794 nM; in data set [3], 10 nM; in data set [7] it was 0.316 nM. The figures for the Intrinsic activity in data set [4], in data set [5] and in data set [6] were 0.1, 0.2 and 0, respectively.
For `Cc1cc2c(N3CCN(CCc4ccc5c(c4)NC(=O)CO5)CC3)cccc2[nH]1`, the Ki was 0.398 nM in data set [1], 3.16 nM in data set [2], 6.31 nM in [3] and 0.2 nM in data set [7]. Further, the values for the Intrinsic activity in data set [4], in [5] and in data set [6] were 0.4, 0.3 and 0.4, respectively.
For `Cc1ccc2c(N3C[C@H]4C[C@@H]3CN4CCc3ccc4c(c3)NC(=O)CO4)cccc2n1`, the Ki in [1] was 0.794 nM; in data set [2], 126 nM; in data set [3] it was 3.98 nM; in data set [7], 25.1 nM. The Intrinsic activity amounted to 0.2 in data set [4], 0.8 in data set [5] and 0 in [6].
`Cc1ccc2c(N3CCN(CCc4ccc5c(c4)NC(=O)CO5)CC3)cc(Cl)cc2n1`: the inhibitory constant (Ki) was 0.501 nM in [1], 0.316 nM in [2], 0.794 nM in [3] and 0.158 nM in [7]. In addition, the Intrinsic activity was 0 in data set [4], 0.4 in data set [5] and 0 in data set [6].
On to `Cc1ccc2c(N3CCN(CCc4ccc5c(c4)N(C)C(=O)CO5)CC3)cccc2n1`, for which the half-life in data set [8] was 4.4 h. This compound also showed a clearance in [9] of 8 mL/min/kg. The same compound registered a bioavailability in data set [10] of 59%. Moreover, the CL in data set [13] amounted to 0.8 mL/min/g; in data set [14] it was 1.1 mL/min/g. For the same compound, the Vd in data set [11] was 2.7 L/kg. Besides, the results for the Intrinsic activity in [4] and in data set [5] were 0.2 and 0.3, respectively.
